# Results reported in patent publication US12605366B2, “Telmisartan for the treatment of hypertension in dogs” (BOEHRINGER INGELHEIM VETMEDICA GMBH, priority 2019, dated 2026).
# Legend:
# [1] = system: dogs with hypertension; assay: Prospective, block-randomized, double-blind clinical trial: systolic blood pressure (SBP) in client-owned dogs with proteinuric CKD; type: in vivo, dog; conditions: for Average of SBP day 0: baseline; for Average of SBP day 0 / Average of SBP % change day 30 / Average of SBP change day 30 / Average of SBP % change day 60 / Average of SBP change day 60 / Average of SBP % change day 90 / Average of SBP change day 90 / Average of SBP day 30 / Average of SBP day 60 / Average of SBP day 90: dogs hypertensive at day 0, no amlodipine; for Average of SBP % change day 30 / Average of SBP change day 30 / Average of SBP % change day 60 / Average of SBP change day 60 / Average of SBP % change day 90 / Average of SBP change day 90 / Average of SBP % change day 120 / Average of SBP change day 120: change from baseline; for Average of SBP % change day 120 / Average of SBP change day 120: the other drug (telmisartan or enalapril) added after SBP measurement on day 90; for course of average SBP during the period of treatment: up to day 90
# Text: A prospective, block-randomized, double-blind clinical trial has been carried out. Fifty-four client-owned dogs with persistent pathologic renal proteinuria have been recruited over a 2-year period.
# Azotemic and non-azotemic dogs (N=54) with hypertensive and non-hypertensive CKD have been recruited prospectively from patients presented to the hospital. Dogs included as cases will have confirmed persistent pathologic renal proteinuria due to CKD; in order to be classified as such, fulfillment of the criteria described below will be required.
# Abdominal ultrasound findings consistent with CKD (bilaterally small, irregular kidneys) and absence of renal neoplasia have also been documented.
# Dogs with suspected or confirmed hyper-adrenocorticism and diabetes mellitus have been included if their disease is considered well controlled with medical therapy.
# Once included in the study and based on the presence/degree of azotemia, dogs have been grouped according to the International Renal Interest Society (IRIS) classification scheme for CKD. Those classified as IRIS stages 2-4 (serum creatinine ≥1.4 mg/dL with inappropriately dilute urine [USG<1.030]) have been considered azotemic (AZ), and those classified as IRIS stage 1 (creatinine <1.4 mg/dL) have been considered non-azotemic (non-AZ). Within each of these two groups, dogs will then be stratified according to IRIS recommendations for arterial pressure (AP) substaging. According to this scheme, dogs with persistent average indirect arterial systolic BP<150 mm Hg will be classified as AP0 (minimal risk for target organ damage). Those with persistent average indirect arterial systolic BP≥150 mm Hg have been classified as AP1-3 (at risk for target organ damage). Four groups will thus be identified: • 1. AZ (IRIS Stages 2-4), IRIS substage AP1-3 3. non-AZ (IRIS Stage 1), IRIS substage AP1-3 • 2. AZ (IRIS Stages 2-4), IRIS substage AP0 4. non-AZ (IRIS Stage 1), IRIS substage AP0
# Once placed into one of these four groups, each patient has then been assigned, based on a randomized blocking scheme, to receive either enalapril (n=27) or telmisartan (n=27), as described below, with the aim of grouping being to ensure that equal numbers of each are included into the two treatment groups.
# On inclusion (day 0), all owners have been required to read/sign a form consenting to their pets' participation in the study. The following baseline data have been collected for each case: full physical examination (performed by one of the study investigators), fundic examination, blood pressure measurement, serum chemistry panel, urinalysis, abdominal ultrasound, UPC and urine culture. The results of screening tests, if performed within 2 weeks of inclusion in the study, may be used as baseline information. Baseline UPC has been defined as the average of two measurements, taken 2 weeks apart, prior to enrollment.
# On day 0, each dog has been randomized to receive telmisartan at 1 mg/kg PO q 24 h (TEL group, n=27) or enalapril at 0.5 mg/kg PO q 12 h (ENAL group, n=27) in a double-blind manner. Randomization and dispensation of telmisartan or enalapril has been carried out at the appropriate doses. Owners have been provided with appropriate contact numbers in the event of an emergency. Enalapril is readily available and telmisartan has been provided by Boehringer Ingelheim Vetmedica Inc., St. Joseph, MO in form of the an aqueous solution, which is commercially available as Semintra®.
# For dogs that are classified as AP3 (SBP≥180 mmHg; ≥200 mmHg in sighthounds), a calcium channel blocker (CCB; amlodipine, 0.1 mg/kg PO q 24 hours) has been administered contemporaneously. Co-administration of RAAS-inhibitors and CCB is common in human patients, recommended by a panel of veterinary experts and shown to be efficacious in a laboratory model of proteinuria. All dogs have been started or maintained on a commercially available diet formulated to be low in phosphorus and protein, for at least 1 month prior to enrollment. […]
# [2] = system: dogs; conditions: cited from earlier work
Structure (SMILES),Average of SBP day 0 [1],Average of SBP % change day 30 ([1]; day 30),Average of SBP change day 30 ([1]; day 30),Average of SBP % change day 60 [1],Average of SBP change day 60 [1],Average of SBP % change day 90 [1],Average of SBP change day 90 [1],Average of SBP % change day 120 ([1]; no amlodipine),Average of SBP change day 120 ([1]; no amlodipine),Average of SBP day 30 ([1]; day 30),Average of SBP day 60 [1],Average of SBP day 90 [1],course of average SBP during the period of treatment ([1]; no amlodipine),other results
CCCc1nc2c(C)cc(-c3nc4ccccc4n3C)cc2n1Cc1ccc(-c2ccccc2C(=O)O)cc1 [Telmisartan],163.57 mmHg,−18.88%,−31.50 mmHg,−18.42%,−31.00 mmHg,−22.58%,−37.00 mmHg,−42.70^2%,−76.00^2 mmHg,140.86 mmHg,138.60 mmHg,132.33 mmHg,constantly lowered,"Average of SBP day 0 ([1]; listed as telmisartan): 163 mmHg; absolute average SBP compared to enalapril treated dogs ([1]; day 0 to day 90, no amlodipine, FIG. 4): much lower; average change of SBP, reduction compared to enalapril-treated dogs ([1]; day 30): at least 30 mmHg; reduction in SBP ([1]; day 30, FIG. 2): ~20%; average SBP change from baseline compared to enalapril ([1]; day 30, day 60 and day 90, dogs with SBP of at least 150 mmHg at day 0 which received amlodipine, FIG. 3): greater; average change (reduction) in SBP compared to enalapril treated dogs ([1]; day 30 to day 90, no amlodipine, FIGS. 1 and 2): greater; Average of SBP day 90 ([1]; listed as telmisartan): 132 mmHg; effect on blood pressure ([2]; 1 mg/kg daily dose): have an effect on blood pressure; vascular and renal excretory effects ([2]; daily oral dose): produces vasodilation, diuresis and natriuresis without influencing potassium or creatinine excretion"
CCOC(=O)[C@H](CCc1ccccc1)N[C@@H](C)C(=O)N1CCC[C@H]1C(=O)O [Enalapril],163.17 mmHg,+12.90%,+20.00 mmHg,+0.65%,+1.00 mmHg,+1.94%,+3.00 mmHg,−20.65^1%,−32.00^1 mmHg,153.80 mmHg,153.00 mmHg,158.00 mmHg,increased again on days 60 and 90,"Average of SBP day 0 ([1]; listed as enalapril): 163 mmHg; SBP increased ([1]; day 30, FIG. 2): more than 10%; Average of SBP day 30 ([1]; day 30, listed as enalapril): 153 mmHg"
